Marks after values point to notes of the source that are not given here.
Assays:
[1] = test system: cornea; test: Porcine Eye Corneal Flattening Assay; conditions: overall change in keratometry (Km) of central 3 mm zone; UVA 4 mm circle, 365 nm, 30 mW/cm^2, CW, 8.1 min, 15 J total dose, normal (21% O2) atmosphere, 37.0° C.
Procedure: Porcine whole globes in saline at 4° C. were warmed to room temperature. The corneas were then de-epithelialized with a dulled scalpel blade and the eyes placed into custom movable eye holders in a horizontal position with the cornea facing upward. The eye holders were then positioned inside an enclosed chamber that allows for the control of atmosphere, temperature and humidity (typically a water bath at 37.0° C.). IOP is maintained at a constant pressure by the insertion of a blood bank buffered saline line from an IV bag at a standard height inserted into each eye via a syringe needle. 5% Dextran T500 in blood bank buffered saline is dropped onto the surface of the cornea of each eye every 90 sec for 2 hours to allow the eyes to stabilize. […] The test eye is then orientated in a vertical position and the pre-treatment surface keratometry of the cornea measured using a Pentacam® HR device fine cornea 100 scan. […] After a further 1.5 hours during which the 5% dextran drops are resumed the eye is orientated back to the vertical position and the post-treatment surface keratometry of the cornea measured using a Pentacam® HR device fine cornea 100 scan as before. The difference map between the pre and post treatment corneal images is obtained and the overall change in keratometry (Km) of the central 3 mm zone recorded as a change in diopters. […]

[2] = test system: cornea; test: Porcine Eye Corneal Stiffening Assay; conditions: UVA 9 mm circle, 365 nm, 30 mW/cm^2, CW, 8.1 min, 15 J, 21% O2, 37.0° C., untreated cornea = 10.1
Procedure: Porcine whole globes in saline at 4° C. were warmed to room temperature. The eyes were either immediately placed into custom movable eye holders in a horizontal position with the cornea facing upward or were first de-epithelialized with a dulled scalpel blade before being placed in the holder. The eye holders were then positioned inside an enclosed chamber that allows for the control of atmosphere, temperature and humidity (typically a water bath at 37.0° C.). A solution of test compound held in place by a small rubber O-ring on the center of the cornea is then allowed to soak into the cornea surface of the test eye. After a set soaking time (typically 10 minutes) the O-ring is removed and any excess test solution washed away with saline. A specific pattern of UVA light at 365 nm is administered to the test eye cornea over a desired dosing period. A corneal flap of desired thickness (typically 200 μm is then excised from the eyes using a femtosecond laser (Zeimer, LDV1). The corneal flap is placed in saline at ambient temperature for 20 minutes and then mounted onto a biaxial extensiometer (CellScale Biotester5000, Waterloo, ON), using biorake attachments (5 tines spanning a width of 3.5 mm). The corneal flap is stretched at a constant rate of 4 μm/s in saline at 37° C. until sample failure. The maximum slope of the force vs distance curve is calculated and compared to that obtained from an untreated cornea.
The following notes provide further clarification regarding certain steps in the assay: • (1) A solution of the test compound (typically 0.22% w/v in saline) is held in place by a small rubber O-ring on the center of the cornea is then allowed to soak into the cornea surface of the test eye. After a set soaking time of 5-30 minutes (typically 10 minutes) the O-ring is removed and any excess test solution washed away with saline. • (2) A corneal flap of desired thickness and diameter (typically 200 μm thick by 8 mm diameter) is then excised from the eyes using a femtosecond laser (Zeimer, LDV1). The corneal flap is either placed in saline at ambient temperature for 20 minutes and then mounted in saline onto a biaxial extensiometer (CellScale Biotester5000, Waterloo, ON) or mounted directly onto the tester in 5% Dextran T500/saline. • (3) Biorake attachments (5 tines spanning a width of 3.5 mm) are used to hold the flap as it is stretched at 37° C. and a constant rate of 4 μm/s in both X (5 N load cell) and Y (10 N load cell) directions simultaneously. • (4) The maximum slope of the force vs distance curve corresponds to the stiffening value. It is compared to that obtained from an untreated cornea.

[3] = maximum slope of force vs distance curve of corneal flap
[4] = eyes were not de-epithelialized prior to treatment

Compound	Refractive Change (D) [1] [D]	Max slope [2, 3]	Max slope [2, 4]
CC1(CCNCC(=O)NCCC2(C)N=N2)N=N1 [Example 1]	−0.32	11.28	
CC1(CCNCCC(=O)N[C@@H](CC(=O)O)C(=O)OCCC2(C)N=N2)N=N1 [Example 6]			10.88^#
CC1(CCNCCC(=O)N[C@@H](CCCCNC(=N)N)C(=O)NCCC2(C)N=N2)N=N1 [Example 10]	−0.64		10.14^#
CC1(CCN(CCC2(C)N=N2)CC(=O)O)N=N1 [Example 13]		12.38	
CC1(CCC(=O)N(CCC2(C)N=N2)CC(=O)O)N=N1 [Example 14]		10.66	10.5
CC1(CCNCC(=O)N[C@@H](CC(=O)O)C(=O)NCCC2(C)N=N2)N=N1 [Example 17]		10.13	
CC1(CCC(=O)N(CCC2(C)N=N2)[C@@H]2CCNC2)N=N1 [Example 23]			10.68^#
